Assay results taken from US20250375473A1, “Pharmaceutical composition for treating cancer comprising an ionic compound having metal ion binding thereto” (METAFINES.CO.LTD., priority 2018, published 2025).
pIC50: −log10 of the molar value. Where “and” joins values, the source holds several entries; their conditions need not be identical. Identical values can stand only once.

Key:
[1] = Maintenance of hetero salt form in aqueous solution (MS); type: physicochemical; settings: added to water
[2] = tested on: DLD-1 cell; test: IC50 of each drug alone, 48 h, DLD-1; type: cell-based
Protocol: (§1) Then, various concentration of Example or chemical anticancer drugs (Fluorouracil (5-FU), SN-38, Paclitaxel (PTX)) were treated thereto alone.

[3] = tested on: SW480; test: Hetero salts vs homo salts, cell viability and cytotoxicity, SW480; type: cell-based; settings: SW480; 5 mM
Protocol: (§2) Hetero salts prepared according to the examples (ASCA101, ASCA201) and homo salts were applied to colorectal cancer cell lines, and their effects on cell viability and cytotoxicity were evaluated.
(§3) Herein, “Na-ASC” refers to sodium ascorbate, “Na-DCA” refers to sodium dichloroacetate, “Ca (ASC) 2” refers to calcium ascorbate, “Ca (DCA) 2” refers to calcium dichloroacetate, and “Ca (LA) 2” refers to calcium lactate.

[4] = GLP toxicity studies (NOAEL), intravenous and oral; type: in vivo
Protocol: In detail, the ionic compound is administered in a dose ranging from 1.61 mg/kg to 64.86 mg/kg based on body weight of the subject. Reflecting the results of actual nonclinical efficacy, toxicity and clinical phase 1 PK/PD (pharmacokinetics/pharmacodynamics) studies, the clinically effective doses are expected to be in the HED (Human Equivalent Dose) ranges 1.61 mg/kg for intravenous administration and 7.22 mg/kg for oral administration-up to a maximum of 32.43 mg/kg for intravenous administration and 64.86 mg/kg for oral administration.

[5] = tested on: DLD-1 cells transplanted into the colon; test: Colorectal cancer mouse model (DLD-1 orthotopic model); type: in vivo; settings: 100 mg/kg IV once a day (Qdx4) for 1 week; dissected after 1 week; vs control
Protocol: (§4) In order to construct an animal model with orthotopic xenotransplantation (orthotopic xenograft) and general animal model (orthotopic xenograft), A549/LUC cells and DLD-1 cells were subcultured, and then the cancer cells were injected into the lung and colon of the mice, respectively.
Since the model was directly injected with cancer cells into the mouse organ, the growth of cancer was not confirmed by observation of the mouse appearance. Therefore, in the animal model to which A549/LUC cells were injected, D-Luciferin was injected intraperitoneally every 7 days to determine the growth saturation of cancer by luminescence imaging measurement using IVIS spectrum imaging system (Xenogen) device. On the other hand, in the animal model to which DLD-1 cells were injected, after 7 days, the experimental subjects were sacrificed to determine the growth saturation of cancer.
In other words, general DLD-1 cells were transplanted into the colon to construct a colorectal cancer mouse model (DLD-1 orthotopic model), and orthotopic xenotransplantation was conducted to the lung to construct a lung cancer mouse model (A549/LUC orthotopic model).
Further, weight of cancer tissue was measured to confirm the anticancer efficacy of the inventive substance in vivo and the results are shown in FIG. 19B.

[6] = tested on: colorectal cancer cell line (HCT-116); test: MTT assay, 48 h, HCT-116; settings: 48 h; MTT; value in brackets
Protocol: (§6) 7 cell lines were aliquoted to each well of a 96-well plate at 5×10^3 cells, and cultured for 24 hours. […] The drug-treated cells were cultured in an incubator (37° C., 5% CO2) for 48 hours, and 5 mg/ ? MTT reagent 10 ? was added to each well and cultured for additional 4 hours. Then, culture medium was removed and DMSO 100 ? was treated to dissolve the MTT stained precipitate, and absorbance was measured at 540 nm with a microplate reader.

[7] = tested on: poly (ADP-ribose) polymerase 1 (PARP-1); test: Western blot, PARP-1 expression in HCT-116; type: cell-based, human; settings: 24 h
Protocol: The cultured cancer cells were pulverized with a homogenizer and centrifuged, and the expression levels of poly (ADP-ribose) polymerase 1 (PARP-1), β-catenin, VEGF and β-actin proteins contained in the lysate were measured using Western blot.

[8] = tested on: human colorectal cancer cell lines (HCT-116 and HT-29); test: Change in ascorbic acid level in cancer cells; type: cell-based; settings: 1 mM; 24 h; lysate; vs untreated control
Protocol: After culture, the cultured cancer cells were pulverized with a homogenizer and centrifuged, and the concentration of ascorbic acid contained in the lysate was measured using an ascorbic acid assay kit (Biovision, San Francisco, CA).

[9] = tested on: liver cancer cell line (HepG2); test: MTT assay, 48 h, HepG2; settings: 48 h, MTT
Protocol: as §6

[10] = tested on: HT-29 cell; test: IC50 of each drug alone, 48 h, HT-29; type: cell-based, human
Protocol: as §1

[11] = tested on: stomach cancer cell line (SNU-638); test: MTT assay, 48 h, SNU-638; settings: 48 h, MTT
Protocol: as §6

[12] = tested on: colorectal cancer cell line (DLD-1); test: MTT assay, 72 h, colorectal cancer cell line; type: cell-based; settings: DLD-1; 72 h; MTT
Protocol: (§5) The calcium salts of Examples 1 to 3 were added to each well by concentration (20 mg/ ? , mg/ ? , 0.8 mg/ ? , 0.16 mg/ ? , 0.032 mg/ ? , 0.0064 mg/ ? , 0.00128 mg/ ? , 0.000256 mg/ ? ). […] The supernatant was removed using a centrifuge, DMSO 200 ? was added to each well to dissolve the MTT stained precipitate, and OD540 value was measured at 540 nm with an ELISA reader.

[13] = tested on: pancreatic cancer cell line (PANC-1); test: MTT assay, 48 h, PANC-1; settings: 48 h, MTT
Protocol: as §6

[14] = tested on: brain cancer cell line (U87MG); test: MTT assay, 72 h, brain cancer cell line; type: cell-based; settings: U87MG, MTT
Protocol: as §5

[15] = tested on: A549/LUC cells implanted into the lung; test: Lung cancer mouse model (A549/LUC orthotopic model); type: in vivo; settings: 100 mg/kg IV once a day (Qdx4) for 5 weeks; vs control
Protocol: as §4
Since the model was directly injected with cancer cells into the mouse organ, the growth of cancer was not confirmed by observation of the mouse appearance. Therefore, in the animal model to which A549/LUC cells were injected, D-Luciferin was injected intraperitoneally every 7 days to determine the growth saturation of cancer by luminescence imaging measurement using IVIS spectrum imaging system (Xenogen) device. On the other hand, in the animal model to which DLD-1 cells were injected, after 7 days, the experimental subjects were sacrificed to determine the growth saturation of cancer. […]
The calcium salts of Examples 1 to 3 were administered to the same mouse model constructed in Test Example 5-1 (A549/LUC orthotopic model), respectively. […] Further, in order to quantify each imaging result more accurately, in vivo images were obtained by measuring ROI (Region of Interest), which is a program of IVIS spectrum (Xenogen), and the results are shown in FIG. 21.

[16] = ASCA101 in rat plasma after intravenous administration (LC-MS/MS); type: in vivo; settings: 0.083 hours after intravenous administration
[17] = tested on: colorectal cancer cell line (HT-29); test: MTT assay, 48 h, HT-29; settings: 48 h, MTT
Protocol: as §6

[18] = tested on: ovarian cancer cell line (A2780); test: MTT assay, 48 h, A2780; settings: 48 h, MTT
Protocol: as §6

[19] = ASCA101 in beagle dog plasma after intravenous administration (LC-MS/MS); type: in vivo
[20] = tested on: HCT-116 cell; test: Co-treatment with chemical anticancer drug, growth inhibition and combinational index; settings: 48 h, co-treated with Paclitaxel, PTX (μM) in c0 and Example 1 (μM) in c1 of the row
Text: As the co-delivery effect, the synergistic effect was CI≤0.85, the additive effect was 0.85<CI≤1.15, and the antagonistic effect was CI>1.15.

[21] = tested on: lung cancer cell line (A-549); test: MTT assay, 48 h, A549; settings: 48 h, MTT
Protocol: as §6

[22] = tested on: breast cancer cell line (MDA-MB-231); test: MTT assay, 72 h, breast cancer cell line; type: cell-based; settings: MDA-MB-231; 72 h; MTT
Protocol: as §5

[23] = tested on: HCT-116 cell; test: IC50 of each drug alone, 48 h, HCT-116; type: cell-based, human; settings: read-out: IC50 value, HCT-116 cell
Protocol: as §1

[24] = tested on: PDH enzyme; test: Time-dependent PDH enzyme activity in cancer cells; type: cell-based; settings: DLD-1 and HT-29 cancer cells; FIG. 29
[25] = tested on: DLD-1; test: Hetero salts vs homo salts, cell viability and cytotoxicity, DLD-1; type: cell-based; settings: DLD-1; 10 mM
Protocol: as §2, §3

Question: Which results are given for `O=C([O-])C(Cl)Cl.O=C1O[C@H]([C@@H](O)CO)C([O-])=C1O.[Ca+2]` [Example 1, calcium salts of dichloroacetic acid and ascorbic acid]?
Answer: retention of hetero salt structure in aqueous solution (MS peaks) [1]: can retain its hetero salt structure in aqueous solution; pIC50 [2]: 3.44; cell viability, SW480 (5 mM) [3]: 20.72; human equivalent dose (HED) from NOAEL with safety factor of 10, intravenous ([4]; intravenous route): 1.61 mg/kg; human equivalent dose (HED) from NOAEL with safety factor of 10, oral ([4]; oral route): 7.22 mg/kg; growth of cancer cells / weight of cancer tissue [5]: significantly suppressed growth of cancer cells; IC50 of HCT-116 Colorectal cancer cell line (mg/ml) [6]: (0.12) mg/ml; concentration at which expression level of full length PARP-1 was decreased the most [7]: 0.18 mg/mL; ascorbic acid concentration in cancer cells [8]: increased; IC50 of HepG2 Liver cancer (mg/ml) ([9]; value in brackets): (0.72) mg/ml; IC50 ([9]; read-out: IC50 mM of HepG2 Liver cancer): 2.1 mM; pIC50 [10]: 2.88; IC50 of SNU-638 Stomach cancer (mg/ml) ([11]; value in brackets): (0.48) mg/ml; IC50 ([11]; read-out: IC50 mM of SNU-638 Stomach cancer): 1.4 mM; IC50 of Colorectal cancer cell line [12]: 70 µg/mL; IC50 of PANC-1 Pancreatic cancer (mg/ml) ([13]; value in brackets): (0.14) mg/ml; IC50 ([13]; read-out: IC50 mM of PANC-1 Pancreatic cancer): 0.42 mM; IC50 of Brain cancer cell line [14]: 500 µg/mL; anticancer efficacy and metastasis (luminescence imaging, ROI) [15]: the growth and metastasis of cancer tissues was not shown at all; ASCA101 concentration in rat plasma [16]: 26.835 µg/mL; IC50 of HT-29 Colorectal cancer cell line (mg/ml) ([17]; value in brackets): (0.29) mg/ml; IC50 ([17]; read-out: IC50 mM of HT-29 Colorectal cancer cell line): 0.83 mM; IC50 of A2780 Ovarian cancer (mg/ml) ([18]; value in brackets): (0.06) mg/ml; IC50 ([18]; read-out: IC50 mM of A2780 Ovarian cancer): 0.17 mM; ASCA101 concentration in beagle dog plasma ([19]; 0.083 hours after intravenous administration): 26.835 µg/mL; maintenance of hetero salt form in plasma / liquid medium ([19]; plasma of rats and beagles after intravenous administration): the hetero salt form was maintained in the bloodstream; Inhibition effect (%) [20]: 73.298% and 63.569%; IC50 of A549 Lung cancer (mg/ml) ([21]; value in brackets): (0.79) mg/ml; IC50 ([21]; read-out: IC50 mM of A549 Lung cancer): 2.3 mM; IC50 of Breast cancer cell line [22]: 40 µg/mL; pIC50 [23]: 3.51; time-dependent PDH activity [24]: greater increase in PDH activity during the first 6 hours, with the activity remaining relatively stable beyond 6 hours; cell viability, DLD-1 (10 mM) [25]: 11.43
